Measured values: publication PMC8510601, “Discovery of benzamide-hydroxypyridinone hybrids as potent multi-targeting agents for the treatment of Alzheimer's disease” (Journal of Enzyme Inhibition and Medicinal Chemistry, 2021)

What was measured:
[1] = molecular target: T1, MAO-B (Homo sapiens, UniProt P27338); assay: Human MAO-B inhibition assay; format: biochemical; settings: for inhibition at 0.1 µM: 100 nM, read-out: Inhibitory rate ± SEM (%, 100 nM); for inhibition at 1 µM: read-out: Inhibitory rate ± SEM (%, 1 μM); for IC50: ± SEM, read-out: IC50 against MAO-B
T1 sequence (P27338 1-520): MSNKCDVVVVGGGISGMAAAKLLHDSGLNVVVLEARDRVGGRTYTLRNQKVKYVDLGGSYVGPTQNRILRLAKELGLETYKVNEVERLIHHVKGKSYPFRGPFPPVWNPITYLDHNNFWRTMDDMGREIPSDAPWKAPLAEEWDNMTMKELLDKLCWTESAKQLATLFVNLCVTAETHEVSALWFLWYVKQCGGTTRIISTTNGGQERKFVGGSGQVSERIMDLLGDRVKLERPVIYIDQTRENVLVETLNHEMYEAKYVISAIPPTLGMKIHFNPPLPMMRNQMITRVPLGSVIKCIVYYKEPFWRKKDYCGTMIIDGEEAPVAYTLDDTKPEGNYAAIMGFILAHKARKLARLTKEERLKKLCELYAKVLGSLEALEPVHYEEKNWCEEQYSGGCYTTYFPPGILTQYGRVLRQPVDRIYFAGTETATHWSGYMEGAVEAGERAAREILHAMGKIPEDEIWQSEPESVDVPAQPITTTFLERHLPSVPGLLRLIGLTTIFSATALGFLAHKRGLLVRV

[2] = pKa determination by spectrophotometric titration; settings: 0.1 M KCl aqueous solution, pH range 2.0–10.5, 25 °C
[3] = Iron-chelating activity test: affinity constants for Fe3+ and pFe3+; settings: for Log β2 / Log β3: KCl (0.1 M): DMSO = 3:2 (v/v); for Log β1: KCl (0.1 M): DMSO = 9:1 (v/v); for pFe^3+: pH 7.4, [Fe3+]total = 10^−6 M, [ligand]total = 10^−5 M, calculated from pKa and log β measured in KCl/DMSO

| Structure (SMILES) | inhibition at 0.1 µM [1] | inhibition at 1 µM [1] | IC50 [1] | melting point | pKa ([2]; KCl (0.1 M)) | pKa ([2]; pKa2, KCl (0.1 M)) | Log β2 [3] | Log β3 [3] | Log β1 [3] | pFe^3+ [3] |
| --- | --- | --- | --- | --- | --- | --- | --- | --- | --- | --- |
| Cc1c(O)c(=O)ccn1CCNC(=O)c1ccccc1 [Compound 8a] | > 50% | 77.65 ± 0.6% | 79 ± 0.3 nM | 211 to 213 °C | 3.43 | 9.81 | 26.35 | 35.83 | 14.93 | 19.14 |
| COc1ccccc1C(=O)NCCn1ccc(=O)c(O)c1C [Compound 8b] | 38.8 ± 1.16% | 59.9 ± 1.57% |  |  | 3.41 | 9.88 | 26.20 | 35.45 | 14.64 | 18.56 |
| COc1cccc(C(=O)NCCn2ccc(=O)c(O)c2C)c1 [Compound 8c] | 31.9 ± 0.85% | 59.97 ± 0.14% |  | 218 to 220 °C | 3.37 | 9.83 | 26.17 | 35.55 | 14.68 | 18.80 |
| COc1ccc(C(=O)NCCn2ccc(=O)c(O)c2C)cc1 [Compound 8d] | 36.02 ± 0.15% | 63 ± 3.9% | 210.8 ± 1.21 nM | 241 to 243 °C | 3.34 | 9.82 | 25.95 | 35.25 | 14.52 | 18.53 |
| Cc1c(O)c(=O)ccn1CCNC(=O)c1ccccc1OCc1ccccc1 [Compound 8e] | 33.1 ± 1.43% | 51.5 ± 1.06% |  | 180 to 182 °C | 3.38 | 9.99 | 26.46 | 35.64 | 14.66 | 18.43 |
| Cc1c(O)c(=O)ccn1CCNC(=O)c1cccc(OCc2ccccc2)c1 [Compound 8f] | 37.9 ± 1.22% | 54.57 ± 0.51% |  | 178 to 180 °C | 3.38 | 9.92 | 26.85 | 35.33 | 14.75 | 18.38 |
| CCOc1ccc(C(=O)NCCn2ccc(=O)c(O)c2C)cc1 [Compound 8h] | 48.1 ± 1.57% | 66.75 ± 0.34% | 119 ± 2.76 nM | 246 to 248 °C | 3.27 | 9.8 | 26.06 | 35.33 | 14.67 | 18.67 |
| CCCOc1ccc(C(=O)NCCn2ccc(=O)c(O)c2C)cc1 [Compound 8i] | > 50% | 53.41 ± 0.31% | 89.1 ± 10.1 nM | 214 to 243 °C | 3.41 | 9.84 | 25.98 | 35.18 | 14.56 | 18.40 |
| C#CCOc1ccc(C(=O)NCCn2ccc(=O)c(O)c2C)cc1 [Compound 8j] | 38.7 ± 0.94% | 58.6 ± 1.18% |  | 208 to 210 °C | 3.41 | 9.88 | 26.14 | 35.24 | 14.67 | 18.35 |
| Cc1c(O)c(=O)ccn1CCNC(=O)c1ccc(OCC2CCCCC2)cc1 [Compound 8k] | 39.5 ± 2.38% | 63.3 ± 0.92% | 189 ± 7.51 nM | 274 to 276 °C | 3.21 | 9.89 | 26.31 | 35.84 | 14.44 | 18.91 |
| Cc1c(O)c(=O)ccn1CCNC(=O)c1ccc(OCc2cccc(F)c2)cc1 [Compound 8l] | > 50% | > 80% | 96.4 ± 6.78 nM |  | 3.51 | 9.74 | 26.72 | 35.87 | 14.76 | 19.39 |
| Cc1c(O)c(=O)ccn1CCNC(=O)c1ccc(OCc2ccc(F)cc2)cc1 [Compound 8m] | > 50% | 70.9 ± 2.51% | 82.8 ± 0.8 nM | 254 to 256 °C | 3.62 | 9.76 | 26.77 | 35.31 | 15.03 | 18.81 |
| Cc1c(O)c(=O)ccn1CCNC(=O)c1ccc(OCc2cccc(Cl)c2)cc1 [Compound 8n] | 47.7 ± 6.06% | 72.4 ± 3.26% | 110.9 ± 1.1 nM | 236 to 238 °C | 3.32 | 9.55 | 25.95 | 34.39 | 14.64 | 18.51 |
| Cc1c(O)c(=O)ccn1CCNC(=O)c1ccc(OCc2ccc(Cl)cc2)cc1 [Compound 8o] | 48.5 ± 4.37% | 63.6 ± 4.14% | 139 ± 1.74 nM |  | 3.33 | 9.63 | 26.09 | 34.55 | 14.43 | 18.44 |
| Cc1c(O)c(=O)ccn1CCNC(=O)c1ccc(OCc2cc(F)ccc2F)cc1 [Compound 8p] | 41.4 ± 2.45% | 65.1 ± 1.47% | 175 ± 6.73 nM | 236 to 238 °C | 3.27 | 9.82 | 26.58 | 35.44 | 14.47 | 18.74 |
| Cc1c(O)c(=O)ccn1CCNC(=O)c1ccc(OCc2cc(F)cc(F)c2)cc1 [Compound 8q] | 49.7 ± 4.22% | 63.9 ± 0.67% | 93.8 ± 6.48 nM |  | 3.27 | 9.82 | 26.63 | 35.73 | 14.61 | 19.01 |
| Cc1c(O)c(=O)ccn1CCNC(=O)c1ccc(OCc2ccc(C(F)(F)F)cc2)cc1 [Compound 8r] | 46.5 ± 6.99% | 63.4 ± 4.06% | 187.7 ± 0.42 nM | 268 to 270 °C | 3.25 | 9.78 | 26.01 | 34.98 | 14.48 | 18.39 |
| Cc1cccc(COc2ccc(C(=O)NCCn3ccc(=O)c(O)c3C)cc2)c1 [Compound 8s] | 49.3 ± 2.58% | 71.3 ± 1.02% | 122.3 ± 0.21 nM |  | 3.31 | 9.86 | 26.67 | 35.67 | 14.67 | 18.85 |
